Patent publication US10286356B2, “Process for the removal of acid gases from gaseous mixtures using an aqueous solution of 2-dimethylamino-2-hydroxymethyl-1, 3-propanediol” (Dow Global Technologies LLC, priority 2014, dated 2019)

Tests used:
Boiling point (Table 1) = type: physicochemical
[1] = pKa of the alkanolamines (Table 1); type: physicochemical

Boiling point (Boiling point (Table 1)) | SMILES | pKa [1]
268 ° F. | OCCNCCO [DEA, diethanolamine] | 
335 ° F. | CN(C)C(CO)(CO)CO [DMTA, 2-dimethylamino-2-hydroxymethyl-1,3-propanediol] | 

SMILES | Boiling point (Boiling point (Table 1)) | pKa [1]
NCCOCCO [DGA, 2-aminoethoxyethanol] | 221 ° F. | 9.4
